In PubChem BioAssay (NCI):
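Briefly, cells in 96-well plates were exposed to five compound concentrations for 48 h, and endpoints were estimated by linear interpolation. The concentration for 50% growth inhibition is given as GI50. TGI is the concentration that stops growth completely.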

Legend:
Experiment in all cases: NCI tumour cell line growth inhibition, 48 h
[1] = tested on: PC-3 prostate
[2] = tested on: DU-145 prostate
[3] = tested on: TK-10 renal
[4] = tested on: RPMI-8226 leukemia
[5] = tested on: HT29 colon
[6] = tested on: EKVX NSCLC
[7] = tested on: CCRF-CEM leukemia
[8] = tested on: ACHN renal
[9] = tested on: SN12C renal
[10] = tested on: MDA-MB-435
[11] = tested on: SF-295 CNS
[12] = tested on: HCC-2998 colon
[13] = tested on: NCI-H23 lung
[14] = tested on: NCI-H522 lung
[15] = tested on: SK-MEL-5 melanoma
[16] = tested on: OVCAR-8 ovarian
[17] = tested on: HL-60(TB) leukemia
[18] = tested on: SR leukemia
[19] = tested on: SF-268 CNS
[20] = tested on: CAKI-1 renal
[21] = tested on: SK-OV-3 ovarian
[22] = tested on: SF-539 CNS
[23] = tested on: A549 NSCLC
[24] = tested on: COLO 205 colon
[25] = tested on: MALME-3M melanoma
[26] = tested on: MOLT-4 leukemia
[27] = tested on: OVCAR-4 ovarian
[28] = tested on: HOP-92 NSCLC
[29] = tested on: RXF 393 renal
[30] = tested on: UACC-62 melanoma
[31] = tested on: HCT-15 colon
[32] = tested on: T-47D breast
[33] = tested on: U251 CNS
[34] = tested on: HS 578T breast
[35] = tested on: BT-549 breast
[36] = tested on: NCI-H226 lung
[37] = tested on: IGROV1 ovarian
[38] = tested on: NCI-H460 lung
[39] = tested on: SNB-75 CNS
[40] = tested on: K-562 leukemia
[41] = tested on: UACC-257 melanoma
[42] = tested on: SW-620 colon
[43] = tested on: KM12 colon
[44] = tested on: SK-MEL-2 melanoma
[45] = tested on: SNB-19 CNS
[46] = tested on: M14 melanoma
[47] = tested on: HCT-116 colon
[48] = tested on: MDA-MB-231 breast
[49] = tested on: HOP-62 NSCLC
[50] = tested on: A498 renal
[51] = tested on: OVCAR-3 ovarian
[52] = tested on: SK-MEL-28 melanoma
[53] = tested on: OVCAR-5 ovarian
[54] = tested on: NCI/ADR-RES ovarian
[55] = tested on: 786-0 renal
[56] = tested on: UO-31 renal
[57] = tested on: LOX IMVI melanoma
[58] = tested on: MCF7 breast

Question: What does the source list for `c1ccc(-c2n(Cc3ccc4ccccc4n3)c3ccccc3[n+]2Cc2ccc3ccccc3n2)cc1`?
Answer: GI50 [1]: 230 nM; TGI [1]: 1350 nM; GI50 [2]: 417 nM; TGI [2]: 5550 nM; GI50 [3]: 426 nM; TGI [3]: 1910 nM; GI50 [4]: 93.6 nM; TGI [4]: 845 nM; GI50 [5]: 221 nM; TGI [5]: 1230 nM; GI50 [6]: 693 nM; TGI [6]: 4270 nM; GI50 [7]: 365 nM; TGI [7]: 2810 nM; GI50 [8]: 1410 nM; TGI [8]: 3010 nM; GI50 [9]: 302 nM; TGI [9]: 1220 nM; GI50 [10]: 337 nM; TGI [10]: 1220 nM; GI50 [11]: 358 nM; TGI [11]: 1390 nM; GI50 [12]: 319 nM; TGI [12]: 1370 nM; GI50 [13]: 262 nM; TGI [13]: 1140 nM; GI50 [14]: 356 nM; TGI [14]: 1690 nM; GI50 [15]: 219 nM; TGI [15]: 502 nM; GI50 [16]: 341 nM; TGI [16]: 1460 nM; GI50 [17]: 151 nM; TGI [17]: 620 nM; GI50 [18]: 357 nM; TGI [18]: 2420 nM; GI50 [19]: 333 nM; TGI [19]: 1350 nM; GI50 [20]: 1360 nM; TGI [20]: 3370 nM; GI50 [21]: 282 nM; TGI [21]: 1180 nM; GI50 [22]: 354 nM; TGI [22]: 1400 nM; GI50 [23]: 346 nM; TGI [23]: 2060 nM; GI50 [24]: 181 nM; TGI [24]: 415 nM; GI50 [25]: 336 nM; TGI [25]: 1650 nM; GI50 [26]: 443 nM; TGI [26]: 2090 nM; GI50 [27]: 238 nM; TGI [27]: 1820 nM; GI50 [28]: 143 nM; TGI [28]: 563 nM; GI50 [29]: 304 nM; TGI [29]: 1540 nM; GI50 [30]: 306 nM; TGI [30]: 1240 nM; GI50 [31]: 2230 nM; TGI [31]: 5990 nM; GI50 [32]: 193 nM; TGI [32]: 1960 nM; GI50 [33]: 243 nM; TGI [33]: 1190 nM; GI50 [34]: 391 nM; TGI [34]: 2280 nM; GI50 [35]: 310 nM; TGI [35]: 1320 nM; GI50 [36]: 424 nM; TGI [36]: 2640 nM; GI50 [37]: 244 nM; TGI [37]: 1280 nM; GI50 [38]: 367 nM; TGI [38]: 1360 nM; GI50 [39]: 229 nM; TGI [39]: 937 nM; GI50 [40]: 141 nM; TGI [40]: 1340 nM; GI50 [41]: 252 nM; TGI [41]: 933 nM; GI50 [42]: 359 nM; TGI [42]: 1690 nM; GI50 [43]: 344 nM; TGI [43]: 1300 nM; GI50 [44]: 298 nM; TGI [44]: 1110 nM; GI50 [45]: 277 nM; TGI [45]: 1310 nM; GI50 [46]: 289 nM; TGI [46]: 1430 nM; GI50 [47]: 247 nM; TGI [47]: 1190 nM; GI50 [48]: 269 nM; TGI [48]: 1300 nM; GI50 [49]: 446 nM; TGI [49]: 1950 nM; GI50 [50]: 147 nM; TGI [50]: 1020 nM; GI50 [51]: 311 nM; TGI [51]: 1380 nM; GI50 [52]: 359 nM; TGI [52]: 1440 nM; GI50 [53]: 376 nM; TGI [53]: 2000 nM; GI50 [54]: 13600 nM; TGI [54]: > 55600 nM; GI50 [55]: 1030 nM; TGI [55]: 2330 nM; GI50 [56]: 1450 nM; TGI [56]: 2890 nM; GI50 [57]: 261 nM; TGI [57]: 1060 nM; GI50 [58]: 274 nM; TGI [58]: 1200 nM
